From US20190382827A1, “USE OF MICROBIAL METABOLITES FOR TREATING DISEASES” (Yeda Research and Development Co. Ltd., priority 2015, published 2019)

Legend:
NLRP6 inflammasome [1] = conditions: for taurine-mediated increase in IL-18 production: organoids, histamine and spermine supplemented in addition to taurine
Protocol: (I, J) IL-18 production by WT (I) and Nlrp6^−/− (J) colonic organoids incubated with either taurine or taurine+histamine+spermine.
(K) Representative organoid images from experiments shown in (I) and (J).

commensal bacteria = experiment: Anaerobic microbiota cultures supplemented with metabolites; parameters: species or system mouse; conditions: anaerobic culturing
NLRP6 inflammasome [2] = experiment: Colon explants cultured with metabolites (IL-18 ELISA, caspase-1 immunoblot, gene expression); assay type: cell-based, mouse; conditions: for IL-18 protein levels: Nlrp3-/- explants; for IL-18 suppression with increasing doses: colonic explant-based validation screen; for IL-18 transcript (mRNA) levels / caspase-1 cleavage / processing: colonic explants; for caspase-1 cleavage / processing: 12 hours incubation, immunoblot p45/p20; for suppression of IL-18 secretion, metabolite screen: cultured WT colon explants
Protocol: Colons were excised and washed thoroughly with PBS, homogenized in RIPA buffer containing protease inhibitors, incubated for 20 min in 4° C. and centrifuged for 20 min, 14,000 rpm at 4° C. Samples were separated on 15% acrylamide gels and transferred onto nitrocellulose membranes. Western blot analysis was performed using anti-caspase 1 p20 polyclonal antibody (Adipogen, AG-20B-0042B-C100) and Goat anti mouse antibody (Jackson ImmunoResearch, 115-035-003). Band density was calculated using ImageJ software. Colon pieces, 0.5 cm long, from the proximal colon were removed, rinsed with PBS, and weighed. The tissue explants were cultured for 24 hrs in DMEM medium containing 10% FBS, L-glutamine, penicillin, and streptomycin at 37° C. Culture medium was collected, centrifuged and the resulting supernatant stored in aliquots at -20° C. Concentrations of IL-18 in the serum or culture supernatants were measured using ELISA. […] Samples were then washed and plates were incubated with anti-mouse IL-18-biotin antibody ([…]-6 MBL) for 1 hour and HRP-Avidin (BioLegend) for 1 hour before quantification. […] For AMP induction in-vitro, 3 μg IL-18 were added to colon explants for 7 hours, then the explants were maintained in RNAlater and RNA was extracted. Tissues were preserved in RNAlater solution (Ambion) and subsequently homogenized in Tri Reagent (Fox et al.). RNA was purified according to the manufacturer's instructions. Two microgram of total RNA was used to generate cDNA (HighCapacity cDNA Reverse Transcription kit; Applied Biosystems). RealTime-PCR was performed using gene-specific primer/probe sets (Applied Biosystems) and Kapa Probe Fast qPCR kit (Kapa Biosystems) on a Viia7 instrument (Applied Biosystems). PCR conditions were 95° C. for 20 s, followed by 40 cycles of 95° C. for 3 s and 60° C. for 30 s. Data were analyzed using the deltaCt method with hprt serving as the reference housekeeping gene.

intestinal microbiota = experiment: 16S analysis of microbiota of mice given metabolites in drinking water; assay type: in vivo, mouse
Source text: Frozen fecal samples were processed for DNA isolation using the MoBio PowerSoil kit according to the manufacturer's instructions. For the 16S rRNA gene PCR amplification, ing of the purified fecal DNA was used for PCR amplification. Amplicons spanning the variable region 1/2 (V1/2) of the 16S rRNA gene were generated by using the following barcoded primers: Fwd 5′-XXXXXXXXAGAGTTTGATCCTGGCTCAG-3′ (SEQ ID NO: 1), Rev 5′-[…]-3′ (SEQ ID NO: 2), where X represents a barcode base. The reactions were subsequently pooled and cleaned (PCR clean kit, Promega), and the PCR products were then sequenced on an Illumina MiSeq in 500 bp paired-end method. The reads were then processed using the QIIME (Quantitative Insights Into Microbial Ecology, www(dot)qiime(dot)org) analysis pipeline as described (Caporaso et al., 2010; Elinav et al., 2011). In brief, fasta quality files and a mapping file indicating the barcode sequence corresponding to each sample were used as inputs, reads were split by samples according to the barcode, taxonomical classification was performed using the RDP-classifier, and an OTU table was created. Closed-reference OTU mapping was employed using the Greengenes database. Rarefaction was used to exclude samples with insufficient count of reads per sample. Sequences sharing 97% nucleotide sequence identity in the V2 region were binned into operational taxonomic units (97% ID OTUs). For beta-diversity, weighted unifrac measurements were plotted according to the two principal coordinates based on 1,000 reads per sample. The OTU tables used for our analyses are made accessible online.

Row | Structure (SMILES) | organoid (spheroid) growth or morphology (NLRP6 inflammasome [1]) | taurine-mediated increase in IL-18 production (NLRP6 inflammasome [1]) | composition of anaerobic microbiota cultures (commensal bacteria) | IL-18 protein levels (NLRP6 inflammasome [2]) | IL-18 suppression with increasing doses (NLRP6 inflammasome [2]) | IL-18 transcript (mRNA) levels (NLRP6 inflammasome [2]) | caspase-1 cleavage / processing (NLRP6 inflammasome [2]) | suppression of IL-18 secretion, metabolite screen (NLRP6 inflammasome [2]) | composition of the intestinal microbiota (intestinal microbiota; WT mice) | IL-18 secretion (NLRP6 inflammasome [1]; WT organoids) | AMPs (Ang4) expression (NLRP6 inflammasome [2]; WT explants cultured for 8 hours) | dependence of IL-18 induction on NLRP6 / NLRP3 (NLRP6 inflammasome [2]; WT, Nlrp6-/- and Nlrp3-/- colon explants) | inflammasome suppression (IL-18 production) by spermine or histamine upon concomitant taurine (NLRP6 inflammasome [2]; colon explants cultured with histamine and spermine, with addition of taurine) | IL-18 induction (NLRP6 inflammasome [2]; sterile WT colonic explants, metabolite screen and increasing doses) | composition of the intestinal microbiota (intestinal microbiota; Asc-/- or Nlrp6-/- mice)
1 | NCCc1c[nH]cn1 [histamine] | not affecting | diminished | did not feature significant compositional alterations | decreased | concentration-dependent IL-18 suppressive functions | no change | reduced | strongest suppressors | induced compositional changes | – | – | – | – | – | –
2 | NCCCNCCCCNCCCN [spermine] | not affecting | diminished | did not feature significant compositional alterations | decreased | concentration-dependent IL-18 suppressive functions | no change | reduced | strongest suppressors | induced compositional changes | – | – | – | – | – | –
3 | NCCS(=O)(=O)O [taurine] | not affecting | – | did not feature significant compositional alterations | – | – | – | enhanced | – | induced compositional changes | induced | induced upregulation | dependent on NLRP6, but not on NLRP3 | rescued | strongest dose-dependent inductive activity | did not occur
